ChEMBL document CHEMBL3885881, “DrugMatrix”

Species: Rattus norvegicus
Experiment: DrugMatrix - Regimen: Daily Repeat
Assay type: toxicity, organism-based, Sprague-Dawley
Design: regimen Daily Repeat, gender Male, age 6-8 weeks
Conditions: in vivo, po, 25 mg/kg, route oral GAVAGE, dose level Low, […]; for ABSOLUTE BASOPHIL / ABSOLUTE EOSINOPHIL / ABSOLUTE LYMPHOCYTE / ABSOLUTE MONOCYTE / ABSOLUTE SEGMENTED NEUTROPHIL / BASOPHIL / EOSINOPHIL / ERYTHROCYTE COUNT / HEMATOCRIT / HEMOGLOBIN / LEUKOCYTE COUNT / LYMPHOCYTE / MEAN CORPUSCULAR HEMOGLOBIN / MEAN CORPUSCULAR HEMOGLOBIN CONCENTRATION / MEAN CORPUSCULAR VOLUME / MONOCYTE / NEUTROPHIL / NUCLEATED RED BLOOD CELLS / PLATELET COUNT: tissue Blood; for ALANINE AMINOTRANSFERASE / ALBUMIN / ALKALINE PHOSPHATASE / ASPARTATE AMINOTRANSFERASE / BLOOD UREA NITROGEN / CARBON DIOXIDE / CHLORIDE / CHOLESTEROL / CREATINE PHOSPHOKINASE / CREATININE / GLUCOSE / LACTATE DEHYDROGENASE / LIPASE / PHOSPHORUS / POTASSIUM / SODIUM / TOTAL BILIRUBIN / TOTAL PROTEIN / URIC ACID: tissue Plasma

CC(C)C(Br)C(=O)NC(N)=O (stereo unspecified) [BROMISOVALUM]
ABSOLUTE BASOPHIL (72 h, time 3 day): 0 CELLS/uL
ABSOLUTE EOSINOPHIL (72 h, time 3 day): 72.33 CELLS/uL
ABSOLUTE LYMPHOCYTE (72 h, time 3 day): 9251.33 CELLS/uL
ABSOLUTE MONOCYTE (72 h, time 3 day): 35.67 CELLS/uL
ABSOLUTE SEGMENTED NEUTROPHIL (72 h, time 3 day): 740.67 CELLS/uL
BASOPHIL (72 h, time 3 day): 0%
EOSINOPHIL (72 h, time 3 day): 0.67%
ERYTHROCYTE COUNT (72 h, time 3 day): 5.09 x10E6/uL
HEMATOCRIT (72 h, time 3 day): 32.1%
HEMOGLOBIN (72 h, time 3 day): 12.97 G/DL
LEUKOCYTE COUNT (72 h, time 3 day): 10.1 x10E3/uL
LYMPHOCYTE (72 h, time 3 day): 91.67%
MEAN CORPUSCULAR HEMOGLOBIN (72 h, time 3 day): 25.47 pg
MEAN CORPUSCULAR HEMOGLOBIN CONCENTRATION (72 h, time 3 day): 40.4 G/DL
MEAN CORPUSCULAR VOLUME (72 h, time 3 day): 63.03 fL
MONOCYTE (72 h, time 3 day): 0.33%
NEUTROPHIL (72 h, time 3 day): 7.33%
NUCLEATED RED BLOOD CELLS (72 h, time 3 day): 0 /100WBC
PLATELET COUNT (72 h, time 3 day): 1168.33 x10E3/uL
ALANINE AMINOTRANSFERASE (72 h, time 3 day): 71.33 u/L
ALBUMIN (72 h, time 3 day): 4.37 G/DL
ALKALINE PHOSPHATASE (72 h, time 3 day): 465.67 u/L
ASPARTATE AMINOTRANSFERASE (72 h, time 3 day): 81.33 u/L
BLOOD UREA NITROGEN (72 h, time 3 day): 12.67 mg/dL
CARBON DIOXIDE (72 h, time 3 day): 33.33 mmol/L
CHLORIDE (72 h, time 3 day): 101 MEQ/L
CHOLESTEROL (72 h, time 3 day): 83 mg/dL
CREATINE PHOSPHOKINASE (72 h, time 3 day): 114.33 u/L
CREATININE (72 h, time 3 day): 0.13 mg/dL
GLUCOSE (72 h, time 3 day): 140.33 mg/dL
LACTATE DEHYDROGENASE (72 h, time 3 day): 109.33 u/L
LIPASE (72 h, time 3 day): 12.67 u/L
PHOSPHORUS (72 h, time 3 day): 10.3 mg/dL
POTASSIUM (72 h, time 3 day): 5.88 MEQ/L
SODIUM (72 h, time 3 day): 149.4 MEQ/L
TOTAL BILIRUBIN (72 h, time 3 day): 0.23 mg/dL
TOTAL PROTEIN (72 h, time 3 day): 5.6 G/DL
URIC ACID (72 h, time 3 day): 0.63 mg/dL
ABSOLUTE BASOPHIL (120 h, time 5 day): 0 CELLS/uL
ABSOLUTE EOSINOPHIL (120 h, time 5 day): 0 CELLS/uL
ABSOLUTE LYMPHOCYTE (120 h, time 5 day): 11869 CELLS/uL
ABSOLUTE MONOCYTE (120 h, time 5 day): 46.67 CELLS/uL
ABSOLUTE SEGMENTED NEUTROPHIL (120 h, time 5 day): 851 CELLS/uL
BASOPHIL (120 h, time 5 day): 0%
EOSINOPHIL (120 h, time 5 day): 0%
ERYTHROCYTE COUNT (120 h, time 5 day): 5.78 x10E6/uL
HEMATOCRIT (120 h, time 5 day): 35.77%
HEMOGLOBIN (120 h, time 5 day): 14.1 G/DL
LEUKOCYTE COUNT (120 h, time 5 day): 12.77 x10E3/uL
LYMPHOCYTE (120 h, time 5 day): 93%
MEAN CORPUSCULAR HEMOGLOBIN (120 h, time 5 day): 24.37 pg
MEAN CORPUSCULAR HEMOGLOBIN CONCENTRATION (120 h, time 5 day): 39.43 G/DL
MEAN CORPUSCULAR VOLUME (120 h, time 5 day): 61.83 fL
MONOCYTE (120 h, time 5 day): 0.33%
NEUTROPHIL (120 h, time 5 day): 6.67%
NUCLEATED RED BLOOD CELLS (120 h, time 5 day): 0 /100WBC
PLATELET COUNT (120 h, time 5 day): 1234 x10E3/uL
ALANINE AMINOTRANSFERASE (120 h, time 5 day): 59.67 u/L
ALBUMIN (120 h, time 5 day): 4.33 G/DL
ALKALINE PHOSPHATASE (120 h, time 5 day): 401 u/L
ASPARTATE AMINOTRANSFERASE (120 h, time 5 day): 86.33 u/L
BLOOD UREA NITROGEN (120 h, time 5 day): 12.67 mg/dL
CARBON DIOXIDE (120 h, time 5 day): 27 mmol/L
CHLORIDE (120 h, time 5 day): 103 MEQ/L
CHOLESTEROL (120 h, time 5 day): 65 mg/dL
CREATINE PHOSPHOKINASE (120 h, time 5 day): 275 u/L
CREATININE (120 h, time 5 day): 0.14 mg/dL
GLUCOSE (120 h, time 5 day): 162.67 mg/dL
LACTATE DEHYDROGENASE (120 h, time 5 day): 114.33 u/L
LIPASE (120 h, time 5 day): 9.67 u/L
PHOSPHORUS (120 h, time 5 day): 12.73 mg/dL
POTASSIUM (120 h, time 5 day): 6.6 MEQ/L
SODIUM (120 h, time 5 day): 147.97 MEQ/L
TOTAL BILIRUBIN (120 h, time 5 day): 0.2 mg/dL
TOTAL PROTEIN (120 h, time 5 day): 6.17 G/DL
URIC ACID (120 h, time 5 day): 1.7 mg/dL
